Experimental data reported in patent publication US6313153A, “Compositions and methods for treating nephritis and inhibiting TGF -β related conditions using pyridylacrylamide derivatives” (Tsumura & Co., priority 1997, dated 2001).
Structures can show the parent of a compound that is named as a salt.

Tests used:
[1] = tested on: anti-GBM nephritic mice; assay: anti-GBM nephritic mice: proteinuria, serum cholesterol, blood urea nitrogen and serum creatinine; assay type: in vivo, BALB/c mice; settings: for Total Evaluation: 3 × (number of + in proteinuria) + (number of + in serum parameter); for Proteinuria 5th day: 5th day from intravenous injection of anti-GBM serum; for Proteinuria 5th day / Proteinuria 10th day / Serum Parameter BUN (blood urea nitrogen) / Serum Parameter S-Ch (serum cholesterol) / Serum Parameter S-Cr (serum creatinine): oral; for Proteinuria 10th day: 10th day from intravenous injection of anti-GBM serum; for Serum Parameter BUN (blood urea nitrogen) / Serum Parameter S-Ch (serum cholesterol) / Serum Parameter S-Cr (serum creatinine): 11th day;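 for Proteinuria 10th day: minus not effective plus trend double p<0.05 triple p<0.01 quadruple p<0.001 improvement vs control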;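 for Proteinuria 5th day: minus not effective plus trend double p<0.05 triple p<0.01 quadruple p<0.001 improvement vs control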;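 for Serum Parameter BUN (blood urea nitrogen): minus not effective plus trend double p<0.05 triple p<0.01 quadruple p<0.001 improvement vs control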;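 for Serum Parameter S-Ch (serum cholesterol): minus not effective plus trend double p<0.05 triple p<0.01 quadruple p<0.001 improvement vs control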
Method: BALB/c mice (5 weeks old, purchased from Nippon Charles Liver) were quarantined and adapted for about 1 week before subjecting to experiments. These mice were divided into several groups for the experiments so that average body weights and standard deviations were almost identical in all groups. Mouse anti-GBM (glomerular basement membrane) nephritis was caused by immunizing the mice with rabbit γ-globulin (1 mg) with Freund's complete adjuvant and intravenously injecting rabbit anti-mouse GBM serum on the fifth day from the immunization. Each compound tested was forcedly orally administered via an oral sonde almost simultaneously with the intravenous injection of the anti-GBM serum. On the 5th and 10th days from the intravenous injection, urine was taken by a plastic metabolic cage and proteinuria was measured (Ohtsuka Tonein TP2). On the 11th day, blood was taken by cutting the carotid and serum cholesterol (S--Ch), blood urea nitrogen (BUN) and serum creatinine (S--Cr) were measured by Toshiba TBA-380 autoanalyzer.

[2] = tested on: total TGF-β1; assay: production of total TGF-β1 in glomeruli isolated from nephritic mice (ELISA); assay type: cell-based, BALB/c male mice; settings: Mus musculus, 10^-6 M, 48 hours, supernatant acid treated, read-out: Inhibition rate (%) of production of total TGF-β1
Method: BALB/c male mice were adapted in a feeding chamber for 1 week before subjecting to experiments. Nephritis was induced by subcutaneously injecting an emulsion of rabbit γ-globulin and Freund's complete adjuvant on the back in a dose amount of 1.0 mg per mouse and, after 5 days (on the zeroth day), intravenously injecting rabbit anti-mouse GBM serum in a dose amount of 0.1 ml per mouse. After 1 day from the injection of anti-serum, the glomeruli were isolated through sieves with different sizes and washed twice. Each compound to be tested (10^-6 M) was added while the solvent was added to the control groups. The glomeruli were incubated in RPMI-1640 serum-free medium for 48 hours. The amount of production of active TGF-β1 was determined by measuring the supernatant itself after the incubation for 48 hours in ELSA method. Further, the supernatant was treated with hydrochloric acid and the pH was returned with sodium hydroxide. The total amount of TGF-β1 produced in the supernatant was measured in ELISA method. The protein concentration in the medium was also measured as glomeruli protein concentration. The inhibition rate was calculated by the following equation.
Inhibition rate (%)=100×(value of control group-value of sample)/(value of control group)

SMILES | Total Evaluation [1] | Proteinuria 5th day [1] | Proteinuria 10th day [1] | Serum Parameter BUN (blood urea nitrogen) [1] | Serum Parameter S-Ch (serum cholesterol) [1] | Serum Parameter S-Cr (serum creatinine) [1] | inhibition at 1 µM [2] [%]
COc1ccc(CCN(C)C(=O)/C(C#N)=C/c2cccnc2)cc1OC [Compound 2] | 13 | + | +++ | - | - | + | 56.7
CCN(CCc1ccc(OC)c(OC)c1)C(=O)/C=C/c1cccnc1 [Compound 12] | 8 | - | + | + | + | +++ | 37.8
COc1ccc(CCN(C)C(=O)/C=C/c2cncc(Cl)c2)cc1OC [Compound 29] | 16 | ++ | ++ | + | ++ | + | 32.6
COC(=O)c1cncc(/C=C/C(=O)N(C)CCc2ccc(OC)c(OC)c2)c1 [Compound 33] | 7 | ++ | ++ | - | ++ | + | 49.8
COc1ccc(CCN(C)C(=O)/C=C/c2cccnc2)cc1 [Compound 49] | 7 | - | + | + | + | ++ | 59
COc1ccc(CCN(C)C(=O)/C=C/c2cccnc2)cc1O [Compound 51] |  |  |  |  |  |  | 56.8
COc1ccc(CCNC(=O)/C=C/c2cccnc2)cc1OC [Compound 55] | 17 | + | +++ | ++ | +++ | - | 75.7
COc1ccc(CCN(C)C(=O)/C(C)=C/c2cccnc2)cc1OC [Compound 62] | 14 | - | +++ | ++ | +++ | + | 31.9
O=C(/C=C/c1cccnc1)NCCc1cccc(OCC(=O)NC2CCCC2)c1 [Compound 116] | 10 | + | + | ++ | + | + | 
O=C(/C=C/c1cccnc1)NCCc1cccc(OCC(=O)NO)c1 [Compound 120] |  |  |  |  |  |  | 56.9
CCNC(=O)Oc1cccc(CCNC(=O)/C=C/c2cccnc2)c1 [Compound 127, (E)-N-[3-[(ethylcarbamoyl)oxy]-phenethyl]-3-(3-pyridyl)-2-propenoic acid amide] | 17 | +++ | ++ | - | ++ | - | 
CCNC(=O)Oc1ccc(CCN(C)C(=O)/C=C/c2cccnc2)cc1OC(=O)NCC [Compound 133] | 9 | + | + | + | + | + | 
COc1ccc(CCN(C)C(=S)/C=C/c2cccnc2)cc1OC [Compound 135, (E)-N-(3,4-dimethoxyphenethyl)-N-methyl-3-(3-pyridyl)-2-propenoic acid thioamide hydrochloride] | 6 | - | + | + | + | + | 47.1
COc1ccc(CCN(C)C(=O)/C=C/c2cccnc2)cc1OC [Compound 140] | 14 | + | ++ | ++ | ++ | + | 
O=C(O)COc1ccc(CCNC(=O)/C=C/c2cccnc2)cc1 [Compound 149] |  |  |  |  |  |  | 35.9
O=C(O)COc1cccc(CCNC(=S)/C=C/c2cccnc2)c1 [Compound 151] |  |  |  |  |  |  | 19.1
COc1ccc(CCN(C)C(=O)/C=C/c2ccccn2)cc1OC [Compound 153] |  |  |  |  |  |  | 31
COc1ccc(CCN(C)C(=O)/C=C/c2ccncc2)cc1OC [Compound 154] |  |  |  |  |  |  | 53.4
COc1ccc(C(=O)CN(C)C(=O)/C=C/c2cccnc2)cc1OC [Compound 155, (E) -N-[2-(3,4-dimethoxyphenyl)-2-oxoethyl]-N-methyl-3-(3-pyridyl)-2-propenoicacid amide] | 28 | ++++ | ++++ | + | +++ | - | 
COc1ccc(C(CN(C)C(=O)/C=C/c2cccnc2)=NO)cc1OC [Compound 156, (E)-N-[2-(3,4-dimethoxyphenyl)-2-(hydroxyimino)ethyl]-N-methyl-3-(3-pyridyl)-2-propenoic acid amide] | 7 | + | + | - | + | - | 
COc1cc(C(O)CN(C)C(=O)/C=C/c2cccnc2)ccc1O (centres unmarked) [Compound 158, (E)-N-[2-hydroxy-2-(3-methoxy-4-hydroxyphenyl)ethyl]-N-methyl-3-(3-pyridyl)-2-propenoic acid amide] | 7 | + | + | - | + | - | 
CCOC(=O)COc1cccc(C(O)CNC(=O)/C=C/c2cccnc2)c1 (centres unmarked) [Compound 159, ethyl [3-[1-hydroxy-2-((E) -3-(3-pyridyl)acryloylamino]ethyl]phenoxy]acetate] | 10 | ++ | + | - | + | - | 
O=C(/C=C/c1cccnc1)NCC(=O)c1cccc(O)c1 [Compound 160, (E)-N-(3-hydroxyphenacyl)-3-(3-pyridyl)-2-propenoic acid amide] | 14 | +++ | + | - | ++ | - | 
CCOC(=O)COc1cccc(C(=O)CNC(=O)/C=C/c2cccnc2)c1 [Compound 161] | 10 | ++ | + | - | + | - | 
COc1cc(C(=O)CN(C)C(=O)/C=C/c2cccnc2)ccc1O [Compound 162, (E)-N-methyl-N-(3-methoxy-4-hydroxyphenacyl)-3-(3-pyridyl)-2-propenoic acid amide] | 13 | +++ | + | - | + | - | 
COc1ccc(C(=O)CN(C)C(=S)/C=C/c2cccnc2)cc1OC [Compound 165, (E)-N-[2-(3,4-dimethoxyphenyl)-2-oxoethyl]-N-methyl-3-(3-pyridyl)-2-propenoic acid thioamide] | 22 | +++ | +++ | + | +++ | - | 
